According to patent publication US4005093A, “2-Naphthyl-lower-alkylamines” (Sterling Drug Inc., priority 1975, dated 1977):
Where a name gives a salt, the structure may show the parent alone.

Columns and labels:
[1] = test system: adjuvant-induced arthritis; assay: modification of the inhibition of adjuvant-induced arthritis test (adjuvant arthritis, AA); type: in vivo; details: oral
Description: (§1) Anti-inflammatory activity was determined using (1) the inhibition of carrageenin-induced foot edema test essentially described by Van Arman et al., J. Pharmacol. Exptl. Therap. 150, 328 (1965) as modified by Winter et al., Proc. Soc. Exp. Biol. and Med. 111, 544 (1962) and (2) a modification of the inhibition of adjuvant-induced arthritis test described by Pierson, J. Chronic Diseases 16, 863 (1963) and Glenn et al., Am. J. Vet. Res. 26, 1180 (1965). […] Data so-obtained, given in terms of percent inhibition at a dose expressed in terms of […] (μM)/kg., are given below. All data were obtained on oral administration.

[2] = test system: carrageenin-induced foot edema; assay: inhibition of carrageenin-induced foot edema test (carrageenin edema, CE); type: in vivo; details: oral
Description: as §1

[3] = dose 0.01 (millimoles (μM)/kg [sic])
[4] = dose 0.04 millimoles (μM)/kg [sic], hydrochloride
[5] = dose 0.16 millimoles (μM)/kg [sic], hydrochloride
[6] = dose 0.08 (millimoles (μM)/kg [sic]), hydrochloride
[7] = dose 0.324 millimoles (μM)/kg [sic], hydrochloride
[8] = dose 0.16 millimoles (μM)/kg [sic]
[9] = dose 0.08 (millimoles (μM)/kg [sic])
[10] = dose 0.324 millimoles (μM)/kg [sic]
[11] = dose 0.005 (printed millimoles (μM)/kg)
[12] = dose 0.02 (printed millimoles (μM)/kg)

SMILES | AA (% Inhib./μM/kg.) [1, 3] [%] | AA (% Inhib./μM/kg.) [1, 5] [%] | CE (% Inhib./μM/kg.) [2, 6] [%] | CE (% Inhib./μM/kg.) [2, 7] [%] | CE (% Inhib./μM/kg.) [2, 9] [%] | CE (% Inhib./μM/kg.) [2, 10] [%] | further results
COc1ccc2cc(C(C)CN3CCCCC3CC3CCCCC3)ccc2c1.Cl (stereo not drawn) [1 (α-Isomer), 2-cyclohexylmethyl-1-[2-(6-methoxy-2-naphthyl)-2-methylethyl]piperidine hydrochloride] | 0 | 86 | 14 | 40 |  |  | AA (% Inhib./μM/kg.) [1, 4]: 8%
COc1ccc2cc(C(C)CN3CCCCC3CC3CCCCC3)ccc2c1.Cl (stereo not drawn) [1 (β-Isomer), 2-cyclohexylmethyl-1-[2-(6-methoxy-2-naphthyl)-2-methylethyl]piperidine hydrochloride] | 0 | 89 | 16 | 47 |  |  | AA (% Inhib./μM/kg.) [1, 4]: 12%
COc1ccc2cc(C(C)CN3CCCCC3CC3CCCCC3)ccc2c1.Cl (stereo not drawn) [1 (γ-Isomer), 2-cyclohexylmethyl-1-[2-(6-methoxy-2-naphthyl)-2-methylethyl]-piperidine hydrochloride] |  | 86 | 24 | 45 |  |  | AA (% Inhib./μM/kg.) ([1]; dose 0.018 (printed millimoles (μM)/kg)): 2%; AA (% Inhib./μM/kg.) ([1]; dose 0.053 (printed millimoles (μM)/kg)): 49%
COc1ccc2cc(C(C)CN3CCCCC3C3CCCCC3)ccc2c1 (stereo not drawn) [Example 2, 2-cyclohexyl-1-[2-(6-methoxy-2-naphthyl)-2-methylethyl-]piperidine hydrochloride] | 17 |  |  |  | 35 | 69 | AA (% Inhib./μM/kg.) ([1]; dose 0.04 millimoles (μM)/kg [sic]): 31%; AA (% Inhib./μM/kg.) [1, 8]: 61%
COc1ccc2cc(C(C)CN3CCCCC3CCC3CCCCC3)ccc2c1 (stereo not drawn) [Example 3, 2-(2-cyclohexylethyl)-1-[2-(6-methoxy-2-naphthyl)-2-methylethyl]-piperidinehydrochloride] |  |  |  |  | 66 | 52 | AA (% Inhib./μM/kg.) [1, 11]: 0%; AA (% Inhib./μM/kg.) [1, 12]: 40%; AA (% Inhib./μM/kg.) [1, 9]: 16%
COc1ccc2cc(C(C)CN3CCC(CCC4CCCCC4)CC3)ccc2c1 (stereo not drawn) [Example 4, 4-(2-cyclohexylethyl)-1-[2-(6-methoxy-2-naphthyl)-2-methylethyl]-piperidine] |  |  |  |  | 22 | 38 | AA (% Inhib./μM/kg.) [1, 11]: 0%; AA (% Inhib./μM/kg.) [1, 12]: 0%; AA (% Inhib./μM/kg.) [1, 9]: 34%
COc1ccc2cc(CCN3CCCCC3CC3CCCCC3)ccc2c1 (stereo not drawn) [Example 5, 2-cyclohexylmethyl-1-[2-(6-methoxy-2-naphthyl)ethyl]piperidine] |  |  |  |  | 29 | 68 | AA (% Inhib./μM/kg.) [1, 10]: 55%
CCN(CC)CCCC(C)NCC(C)c1ccc2cc(OC)ccc2c1 (stereo not drawn) [Example 6, N-[2-(6-methoxy-2-naphthyl)-2-methylethyl]-N-[5-(N',N'-diethyl-amino)-2-pentyl]amine] |  |  |  |  | 28 | 26 | AA (% Inhib./μM/kg.) [1, 8]: 73%
